Source: ChEMBL document CHEMBL4673352, “Discovery of AZD4573, a Potent and Selective Inhibitor of CDK9 That Enables Short Duration of Target Engagement for the Treatment of Hematological Malignancies” (J Med Chem, 2020)
Activity calls are given as the source filed them. The calls are words filed in the database; no cut-off is given here.

Columns and labels:
[1] = target: Cyclin-dependent kinase 9 (Mus musculus) (UniProt Q99J95); experiment: In-vivo inhibition of CDK9 in mouse xenografted with human MV4-11 cells assessed as reduction in Mcl-1 at 5 to 15 mg/kg, ip BID administered at 2 hrs dose interval with 2 days on and 5 days off dosing schedule by Western blot analysis; assay type: functional, organism-based; details: dose 5-15 mg/kg
[2] = target: Cyclin-dependent kinase 9 (Mus musculus) (UniProt Q99J95); experiment: In-vivo inhibition of CDK9 in mouse xenografted with human MV4-11 cells assessed as reduction in RNA Polymerase 2 CTD phosphorylation at Ser2 residues at 5 to 15 mg/kg, ip BID administered at 2 hrs dose interval with 2 days on and 5 days off dosing schedule by Western blot analysis; assay type: functional, organism-based; details: dose 5-15 mg/kg
MV4-11 = experiment: Antitumor activity against human MV4-11 cells xenografted in CB17 SCID mouse assessed as tumor regression at 15 mg/kg, ip BID administered at 2 hrs dosing interval with 2 days on and 5 days off dosing schedule observed for 125 days; assay type: functional; details: time 125 day
[3] = Drug metabolism in human liver microsome assessed as (1S,3R)-3-acetamido-N-(5-chloro-4-(6-hydroxy-5,5-dimethyl-5,6-dihydro-4H-pyrrolo[1,2-b]pyrazol-3-yl)pyridin-2-yl)cyclohexanecarboxamide formation at 10 uM measured after 1 hr in presence of NADPH by LC-UV-MS analysis; assay type: ADME; details: microsomes
[4] = Volume of distribution at steady state in mouse at 2.3 umol/kg, iv formulated as solution; assay type: ADME, organism-based; details: in vivo, dose 2.3 µmol/kg, read-out: Vdss
[5] = Half-life in Beagle dog at 0.23 umol/kg, iv administered over 0.25 hrs formulated as solution in 10% DMSO/90% water; assay type: ADME, organism-based, Canis lupus familiaris; details: in vivo, dose 0.23 µmol/kg
[6] = Clearance in mouse plasma at 2.3 umol/kg, iv formulated as solution; assay type: ADME, organism-based; details: dose 2.3 µmol/kg
[7] = target: Mitogen-activated protein kinase 15 (Homo sapiens) (UniProt Q8TD08); experiment: Inhibition of human recombinant N-terminal FLAG-tagged ERK7 expressed in Sf9 insect cells at 0.1 uM incubated for 60 mins by TR-FRET based LanthaScreen Eu kinase binding assay relative to control
[8] = Volume of distribution at steady state in Beagle dog at 0.23 umol/kg, iv administered over 0.25 hrs formulated as solution in 10% DMSO/90% water; assay type: ADME, organism-based, Canis lupus familiaris; details: in vivo, dose 0.23 µmol/kg, read-out: Vdss
[9] = target: Glycogen synthase kinase-3 beta (Homo sapiens, UniProt P49841); experiment: Inhibition of GSK3beta (unknown origin) in presence of 5 mM ATP
[10] = Half-life in mouse at 2.3 umol/kg, iv formulated as solution; assay type: ADME, organism-based; details: in vivo, dose 2.3 µmol/kg
[11] = target: T1, Dual specificity tyrosine-phosphorylation-regulated kinase 2 (Homo sapiens) (UniProt Q92630); experiment: Inhibition of human recombinant full length N-terminal GST-tagged DYRK2 expressed in Escherichia coli at 0.1 uM incubated for 60 mins by TR-FRET based LanthaScreen Eu kinase binding assay relative to control
T1 sequence (whole entry): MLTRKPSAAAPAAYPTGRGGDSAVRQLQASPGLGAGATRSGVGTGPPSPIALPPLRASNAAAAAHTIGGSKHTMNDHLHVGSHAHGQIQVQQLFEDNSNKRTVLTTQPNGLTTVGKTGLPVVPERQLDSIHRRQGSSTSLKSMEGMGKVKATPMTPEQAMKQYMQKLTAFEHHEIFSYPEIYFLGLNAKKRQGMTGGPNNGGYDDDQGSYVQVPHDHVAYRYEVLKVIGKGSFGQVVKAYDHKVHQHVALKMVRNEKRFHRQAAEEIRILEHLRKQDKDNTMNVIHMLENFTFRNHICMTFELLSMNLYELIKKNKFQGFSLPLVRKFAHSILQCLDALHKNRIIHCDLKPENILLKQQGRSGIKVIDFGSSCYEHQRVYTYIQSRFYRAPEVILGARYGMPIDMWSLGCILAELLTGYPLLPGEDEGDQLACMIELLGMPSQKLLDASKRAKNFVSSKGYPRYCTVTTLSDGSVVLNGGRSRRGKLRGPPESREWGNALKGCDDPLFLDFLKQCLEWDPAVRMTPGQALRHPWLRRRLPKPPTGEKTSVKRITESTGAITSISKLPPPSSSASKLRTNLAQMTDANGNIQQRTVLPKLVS

Homo sapiens [12] = species: Homo sapiens; experiment: Selectivity ratio of IC50 for recombinant full length human CDK2/CyclinE expressed in insect cells to IC50 for Inhibition of recombinant full length human N-terminal GST-fused CDK9 (1 to 372 residues)/His-tagged CyclinT1 (1 to 726 residues) expressed in baculovirus infected insect cells
Homo sapiens [13] = species: Homo sapiens; experiment: Selectivity ratio of IC50 for CDK4 (unknown origin) in presence of 5 mM ATP to IC50 for Inhibition of recombinant full length human N-terminal GST-fused CDK9 (1 to 372 residues)/His-tagged CyclinT1 (1 to 726 residues) expressed in baculovirus infected insect cells
CDK9/cyclin T1 = CDK9/cyclin T1 (Homo sapiens, UniProt P50750); experiment: Binding affinity to human CDK9/CyclinT assessed as equilibrium dissociation constant by surface plasmon resonance analysis; assay type: protein-complex assay
[14] = Drug metabolism in human hepatocytes assessed as 3-(4-(2-((1S,3R)-3-acetamidocyclohexanecarboxamido)-5-fluoropyridin-4-yl)-1H-pyrazol-5-yl)-2,2-dimethylpropanoic acid metabolite formation; assay type: ADME, cell-based, Hepatocyte
[15] = Drug metabolism in human liver microsomes assessed as (1S,3R)-3-acetamido-N-(5-fluoro-4-(5-(3-hydroxy-2,2-dimethylpropyl)-1H-pyrazol-4-yl)pyridin-2-yl)cyclohexanecarboxamide formation at 10 uM measured after 1 hr in presence of NADPH by LC-UV-MS analysis; assay type: ADME, Microsome
Homo sapiens [16] = species: Homo sapiens; experiment: Selectivity ratio of IC50 for recombinant full length human His-tagged CDK1/CyclinB expressed in baculovirus infected insect cells to IC50 for Inhibition of recombinant full length human N-terminal GST-fused CDK9 (1 to 372 residues)/His-tagged CyclinT1 (1 to 726 residues) expressed in baculovirus infected insect cells
[17] = Drug metabolism in human hepatocytes assessed as 4-(4-(2-((1S,3R)-3-acetamidocyclohexanecarboxamido)-5-chloropyridin-4-yl)-1H-pyrazol-5-yl)butanoic acid metabolite formation; assay type: ADME, cell-based, Hepatocyte
[18] = Volume of distribution at steady state in Beagle dog at 5.2 umol/kg, iv administered as 0.25 hrs formulated as solution in 5% DMSO; assay type: ADME, organism-based, Canis lupus familiaris; details: in vivo, dose 5.2 µmol/kg, read-out: Vdss
[19] = Half-life in Beagle dog at 5.2 umol/kg, iv administered over 0.25 hrs formulated as solution in 5% DMSO; assay type: ADME, organism-based, Canis lupus familiaris; details: in vivo, dose 5.2 µmol/kg

Chain of Cyclin-dependent kinase 9 (Mus musculus) (Q99J95 whole entry): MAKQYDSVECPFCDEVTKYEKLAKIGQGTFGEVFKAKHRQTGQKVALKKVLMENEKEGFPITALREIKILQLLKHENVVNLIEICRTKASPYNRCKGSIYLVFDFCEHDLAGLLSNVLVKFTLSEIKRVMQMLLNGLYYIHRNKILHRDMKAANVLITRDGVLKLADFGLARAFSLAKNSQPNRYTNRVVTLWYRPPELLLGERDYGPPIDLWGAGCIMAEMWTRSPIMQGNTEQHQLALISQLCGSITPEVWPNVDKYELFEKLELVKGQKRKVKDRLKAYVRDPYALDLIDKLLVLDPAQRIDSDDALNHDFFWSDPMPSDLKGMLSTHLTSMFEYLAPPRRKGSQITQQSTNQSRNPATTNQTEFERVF
Chain of CDK9/cyclin T1 (O60563 whole entry): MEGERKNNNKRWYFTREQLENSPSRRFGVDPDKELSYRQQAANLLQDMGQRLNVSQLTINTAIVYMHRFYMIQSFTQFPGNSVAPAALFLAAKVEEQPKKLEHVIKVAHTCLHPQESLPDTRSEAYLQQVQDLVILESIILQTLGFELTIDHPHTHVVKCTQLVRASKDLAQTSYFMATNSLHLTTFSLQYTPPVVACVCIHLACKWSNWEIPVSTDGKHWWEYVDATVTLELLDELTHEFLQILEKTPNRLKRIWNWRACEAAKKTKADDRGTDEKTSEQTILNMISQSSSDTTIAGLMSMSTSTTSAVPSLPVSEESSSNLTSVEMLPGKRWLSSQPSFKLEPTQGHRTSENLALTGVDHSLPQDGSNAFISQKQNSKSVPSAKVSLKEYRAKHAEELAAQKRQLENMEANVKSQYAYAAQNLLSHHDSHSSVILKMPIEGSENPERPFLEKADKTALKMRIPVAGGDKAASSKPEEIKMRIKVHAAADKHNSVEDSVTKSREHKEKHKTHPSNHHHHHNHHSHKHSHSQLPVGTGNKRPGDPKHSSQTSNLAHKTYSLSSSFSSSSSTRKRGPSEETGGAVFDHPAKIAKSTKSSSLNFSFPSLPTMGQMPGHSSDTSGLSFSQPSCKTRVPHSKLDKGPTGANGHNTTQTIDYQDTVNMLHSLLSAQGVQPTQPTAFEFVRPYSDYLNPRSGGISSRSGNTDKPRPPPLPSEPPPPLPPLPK
Chain of CDK9/cyclin T1 (P50750 whole entry): as the sequence (Q99J95 whole entry) above, with T17S, K37R, Q40K, K258N, F262Y counted along it
Chain of Glycogen synthase kinase-3 beta (P49841 whole entry): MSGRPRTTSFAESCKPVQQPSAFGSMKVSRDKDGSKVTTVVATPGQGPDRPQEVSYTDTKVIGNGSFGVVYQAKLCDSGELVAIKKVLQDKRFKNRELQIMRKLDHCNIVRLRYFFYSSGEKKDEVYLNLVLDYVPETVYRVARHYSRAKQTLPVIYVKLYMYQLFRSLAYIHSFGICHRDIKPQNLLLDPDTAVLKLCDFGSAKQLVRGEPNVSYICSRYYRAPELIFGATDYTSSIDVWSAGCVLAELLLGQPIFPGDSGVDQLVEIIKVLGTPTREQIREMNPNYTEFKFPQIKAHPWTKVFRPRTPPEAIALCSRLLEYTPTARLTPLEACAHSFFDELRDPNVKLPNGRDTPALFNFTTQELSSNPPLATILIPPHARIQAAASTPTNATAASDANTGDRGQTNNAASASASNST
Chain of Mitogen-activated protein kinase 15 (Homo sapiens) (Q8TD08 whole entry): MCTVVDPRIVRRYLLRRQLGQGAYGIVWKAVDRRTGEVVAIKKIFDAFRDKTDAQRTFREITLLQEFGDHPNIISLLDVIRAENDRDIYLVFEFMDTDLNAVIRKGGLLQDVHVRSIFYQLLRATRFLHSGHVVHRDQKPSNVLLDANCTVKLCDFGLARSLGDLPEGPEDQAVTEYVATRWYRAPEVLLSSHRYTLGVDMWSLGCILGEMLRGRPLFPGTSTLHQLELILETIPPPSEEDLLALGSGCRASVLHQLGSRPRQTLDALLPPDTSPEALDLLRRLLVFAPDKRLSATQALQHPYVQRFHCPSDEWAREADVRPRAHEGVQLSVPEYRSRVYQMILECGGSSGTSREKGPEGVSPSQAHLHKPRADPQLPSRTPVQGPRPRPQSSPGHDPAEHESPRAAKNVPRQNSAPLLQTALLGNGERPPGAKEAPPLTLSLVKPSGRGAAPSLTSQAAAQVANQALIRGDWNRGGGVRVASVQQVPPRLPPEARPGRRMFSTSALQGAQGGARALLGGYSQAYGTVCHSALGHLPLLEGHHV

For `CC(=O)N[C@@H]1CCC[C@H](C(=O)Nc2cc(-c3cnn4c3CC(C)(C)C4)c(Cl)cn2)C1` [ZEMIRCICLIB], the inhibition [1] was “Active”, the inhibition [2] was “Active” and the Activity (MV4-11) was 100%. For the same compound, the Drug metabolism [3] was “Metabolite_Detected”, the Vd [4] was 0.45 L/kg and the half-life [5] was 39.6 min. For the same compound, the clearance [6] was 55 mL/min/kg, the inhibition [7] was 83% and the Vd [8] was 0.67 L/kg. It also gave an IC50 [9] of 247 nM, a half-life [10] of 10.8 min and an inhibition [11] of 85%.
Compound `CC(=O)N[C@@H]1CCC[C@H](C(=O)Nc2cc(-c3cnn4c3CC(C)(C)C4)c(F)cn2)C1` has a Ratio IC50 (Homo sapiens [12]) of 16, a Ratio IC50 (Homo sapiens [13]) of 16 and a Kd (CDK9/cyclin T1) of 0.123 nM. The Drug metabolism [14] was “Metabolite_Detected”, the Drug metabolism [15] was “Metabolite_Detected” and the Ratio IC50 (Homo sapiens [16]) was 16.
In the case of `CC(=O)N[C@@H]1CCC[C@H](C(=O)Nc2cc(-c3cnn4c3CCCC4)c(Cl)cn2)C1`, the Drug metabolism [17] is reported as “Metabolite_Detected”, the Vd [18] is reported as 0.9 L/kg and the half-life [19] is reported as 30 min.
